# Experimental data reported in PubChem BioAssay AID2060908 (Molecular Pharmacology Branch, DTP, NCI, 2025).
# Tested on: 186277-243-T-J2-PDC complex spheroids, viability
# Test: Anticancer human tumor 186277-243-T-J2-PDC patient-derived colon adenocarcinoma cell line growth inhibition [RAS]
# Conditions: for IC50: curve of first compound; for viability, T/C: stronger effect = lower value
# Procedure, shortened: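 Agents were tested in combination matrices in half-log decrements from a top concentration at or near clinical Cmax (10 microM if undetermined). Targets were multi-cell spheroids of tumour lines plus HUVEC and MSC stromal cells.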
# 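Also: spheroids exposed to compounds for 7 days before viability read.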
smiles,measurement,setting,value
CC1(C)CCC(Nc2ncc(C(F)(F)F)c(-c3c[nH]c4c(P(C)(C)=O)c(C#N)ccc34)n2)CN1 (configuration not stated) + C#Cc1c(F)ccc2cc(O)cc(-c3ncc4c(N5CC6CCC(C5)N6)nc(OCC56CCCN5CC(F)C6)nc4c3F)c12,IC50,second compound 0.0316 µM,69.8 nM
same,IC50,second compound 0.1 µM,12.1 nM
same,IC50,second compound 0.316 µM,< 0.949 nM
same,IC50,second compound 1 µM,< 0.949 nM
same,IC50,second compound 3.16 µM,< 0.949 nM
same,IC50,second compound 10 µM,< 0.949 nM
same,"viability, T/C","second compound 0.0316 µM, first compound 0.000949 µM",91.9%
same,"viability, T/C","second compound 0.0316 µM, first compound 0.003 µM",80.4%
same,"viability, T/C","second compound 0.0316 µM, first compound 0.00949 µM",60.4%
same,"viability, T/C","second compound 0.0316 µM, first compound 0.03 µM",55.8%
same,"viability, T/C","second compound 0.0316 µM, first compound 0.0949 µM",51.8%
same,"viability, T/C","second compound 0.0316 µM, first compound 0.3 µM",40.9%
same,"viability, T/C","second compound 0.1 µM, first compound 0.000949 µM",50%
same,"viability, T/C","second compound 0.1 µM, first compound 0.003 µM",67.4%
same,"viability, T/C","second compound 0.1 µM, first compound 0.00949 µM",55.4%
same,"viability, T/C","second compound 0.1 µM, first compound 0.03 µM",29%
same,"viability, T/C","second compound 0.1 µM, first compound 0.0949 µM",34.5%
same,"viability, T/C","second compound 0.1 µM, first compound 0.3 µM",26.1%
same,"viability, T/C","second compound 0.316 µM, first compound 0.000949 µM",27.9%
same,"viability, T/C","second compound 0.316 µM, first compound 0.003 µM",29.9%
same,"viability, T/C","second compound 0.316 µM, first compound 0.00949 µM",23%
same,"viability, T/C","second compound 0.316 µM, first compound 0.03 µM",15.9%
same,"viability, T/C","second compound 0.316 µM, first compound 0.0949 µM",15.2%
same,"viability, T/C","second compound 0.316 µM, first compound 0.3 µM",17.2%
same,"viability, T/C","second compound 1 µM, first compound 0.000949 µM",15.6%
same,"viability, T/C","second compound 1 µM, first compound 0.003 µM",16.5%
same,"viability, T/C","second compound 1 µM, first compound 0.00949 µM",13%
same,"viability, T/C","second compound 1 µM, first compound 0.03 µM",13.9%
same,"viability, T/C","second compound 1 µM, first compound 0.0949 µM",12.4%
same,"viability, T/C","second compound 1 µM, first compound 0.3 µM",11.5%
same,"viability, T/C","second compound 3.16 µM, first compound 0.000949 µM",12.4%
same,"viability, T/C","second compound 3.16 µM, first compound 0.003 µM",11.7%
same,"viability, T/C","second compound 3.16 µM, first compound 0.00949 µM",11%
same,"viability, T/C","second compound 3.16 µM, first compound 0.03 µM",12.5%
same,"viability, T/C","second compound 3.16 µM, first compound 0.0949 µM",11.2%
same,"viability, T/C","second compound 3.16 µM, first compound 0.3 µM",8.62%
same,"viability, T/C","second compound 10 µM, first compound 0.000949 µM",8.95%
same,"viability, T/C","second compound 10 µM, first compound 0.003 µM",9.05%
same,"viability, T/C","second compound 10 µM, first compound 0.00949 µM",7.62%
same,"viability, T/C","second compound 10 µM, first compound 0.03 µM",6.45%
same,"viability, T/C","second compound 10 µM, first compound 0.0949 µM",9.73%
same,"viability, T/C","second compound 10 µM, first compound 0.3 µM",7.54%
